This passage reports GI50 and TGI results from PubChem BioAssay (NCI).

Values joined by “and” are separate entries in the source; they are usually repeats but may differ in a detail not shown here. Equal values may be shown once.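 Cells were grown in 96-well plates and exposed to each compound for 48 hours at five concentrations; endpoints were interpolated linearly between bracketing concentrations, or set to the highest concentration if not reached. GI50: concentration for 50% inhibition of growth. Definition used: TGI = concentration required for complete inhibition of growth.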

The test system of one test is CCRF-CEM leukemia. The experiment in a line: NCI anticancer screen, dose series, 48 h.
Consider `Fc1[nH]nc2ccc([C@@H]3Nc4ccc5[nH]ncc5c4[C@H]4C5CCC(C5)[C@@H]34)cc12` (some centres not stated), for which the GI50 is 0.514 µM and the TGI was 16.5 µM.
For `C=C(C)C(OC)C(O)CC1(C)CC(O)CC(C)(C2CCC3OC(C4(C)CCC(Br)C(C)(C)O4)CCC3(C)O2)O1` (configuration not stated), in that order: 21.3 µM and 55.8 µM.
Taken in the same sequence, the figures for `NC(N)=NS(=O)(=O)c1ccc(Nc2c3ccccc3nc3c(C(=O)NCCO)cccc23)cc1` were 19.9 µM and > 100 µM.
Taken in the same sequence, the figures for `COc1cccc(-c2cc(-c3cccc(NS(C)(=O)=O)c3)nc(N)c2C#N)c1O` were 0.153 µM and > 100 µM.
For the molecule `COc1ccc2c(c1)sc1nc(-c3ccccc3)c(-c3cccc4ccccc34)n12`, the GI50 is 0.45 µM and the TGI was > 100 µM.
As to `C[N+](C)(C)CC(=O)N/N=C(/CC(=O)CC(C1=C(O)c2ccccc2OC1)c1ccccc1)C(=O)Nc1cccc(Cl)c1` (configuration not stated), the TGI is > 100 µM.
With `OCCN(CCO)c1ncnc2c1ncn2Cc1ccc(CCl)cc1`, the GI50 was 11 µM and the TGI came to 47.1 µM.
`O=C(Nc1ccccc1)c1c(O)[nH]c(=S)[nH]c1=O`: the GI50 is 71.2 µM; the TGI was 83.3 µM and > 250 µM.
With `Cc1ccc(NC(=O)Nc2ccc(-c3cccnc3)cc2N2CCC(CO)CC2)cc1`, the GI50 is 3.57 µM and the TGI was > 100 µM.
As to `Cc1cc(-c2nc(C(=O)Nc3cc4oc(N5CCOCC5)nc4nc3N3CC[C@@H](O)C3)co2)ccn1`, the GI50 is 29.4 µM and the TGI is > 100 µM.
As to `COc1ccc(CC2c3cc4c(cc3CCN2C)OCO4)c(C=O)c1OC` (configuration not stated), the TGI was > 100 µM.
As to `COc1cc(/C=N\NC(=O)CN2CCN(c3cc4c(cc3F)c(=O)c(C(=O)N/N=C/c3cc(OC)c(OC)c(OC)c3)cn4C3CC3)CC2)cc(OC)c1OC`, the GI50 is 0.316 µM and the TGI was > 100 µM.

The next test concerns EKVX NSCLC. The experiment in a line: NCI anticancer screen, dose series, 48 h.
In the case of `Fc1[nH]nc2ccc([C@@H]3Nc4ccc5[nH]ncc5c4[C@H]4C5CCC(C5)[C@@H]34)cc12` (some centres not stated), the GI50 was 2.39 µM and the TGI is 17.4 µM.
Taken in the same sequence, the figures for `C=C(C)C(OC)C(O)CC1(C)CC(O)CC(C)(C2CCC3OC(C4(C)CCC(Br)C(C)(C)O4)CCC3(C)O2)O1` (configuration not stated) were 14.1 µM and 34.1 µM.
On to `NC(N)=NS(=O)(=O)c1ccc(Nc2c3ccccc3nc3c(C(=O)NCCO)cccc23)cc1`, for which the GI50 was 25.7 µM.
On to `COc1cccc(-c2cc(-c3cccc(NS(C)(=O)=O)c3)nc(N)c2C#N)c1O`, for which the GI50 was 0.561 µM and the TGI is > 100 µM.
Taken in the same sequence, the figures for `COc1ccc2c(c1)sc1nc(-c3ccccc3)c(-c3cccc4ccccc34)n12` were 1.61 µM and > 100 µM.
On to `C[N+](C)(C)CC(=O)N/N=C(/CC(=O)CC(C1=C(O)c2ccccc2OC1)c1ccccc1)C(=O)Nc1cccc(Cl)c1` (configuration not stated), for which the TGI is > 100 µM.
Regarding `OCCN(CCO)c1ncnc2c1ncn2Cc1ccc(CCl)cc1`, the GI50 is 16.6 µM and the TGI came out at 31.8 µM.
As to `O=C(Nc1ccccc1)c1c(O)[nH]c(=S)[nH]c1=O`, the GI50 was 120 µM; the TGI is 103 µM and > 250 µM.
With `Cc1ccc(NC(=O)Nc2ccc(-c3cccnc3)cc2N2CCC(CO)CC2)cc1`, the GI50 was 3.42 µM and the TGI is > 100 µM.
For `Cc1cc(-c2nc(C(=O)Nc3cc4oc(N5CCOCC5)nc4nc3N3CC[C@@H](O)C3)co2)ccn1`, in that order: > 100 µM and > 100 µM.
With `COc1ccc(CC2c3cc4c(cc3CCN2C)OCO4)c(C=O)c1OC` (configuration not stated), the TGI is > 100 µM.
`COc1cc(/C=N\NC(=O)CN2CCN(c3cc4c(cc3F)c(=O)c(C(=O)N/N=C/c3cc(OC)c(OC)c(OC)c3)cn4C3CC3)CC2)cc(OC)c1OC`: the TGI is > 100 µM.

For another test, the system named is K-562 leukemia. The experiment in a line: NCI anticancer screen, dose series, 48 h.
With `Fc1[nH]nc2ccc([C@@H]3Nc4ccc5[nH]ncc5c4[C@H]4C5CCC(C5)[C@@H]34)cc12` (some centres not stated), the GI50 was 0.324 µM and the TGI is 13.9 µM.
Taken in the same sequence, the figures for `C=C(C)C(OC)C(O)CC1(C)CC(O)CC(C)(C2CCC3OC(C4(C)CCC(Br)C(C)(C)O4)CCC3(C)O2)O1` (configuration not stated) were 20.7 µM and > 68.5 µM.
Consider `NC(N)=NS(=O)(=O)c1ccc(Nc2c3ccccc3nc3c(C(=O)NCCO)cccc23)cc1`, for which the GI50 is 35.1 µM.
`COc1cccc(-c2cc(-c3cccc(NS(C)(=O)=O)c3)nc(N)c2C#N)c1O`: the GI50 is 0.0508 µM and the TGI is > 100 µM.
Regarding `COc1ccc2c(c1)sc1nc(-c3ccccc3)c(-c3cccc4ccccc34)n12`, the GI50 is 0.328 µM and the TGI is > 100 µM.
For the molecule `C[N+](C)(C)CC(=O)N/N=C(/CC(=O)CC(C1=C(O)c2ccccc2OC1)c1ccccc1)C(=O)Nc1cccc(Cl)c1` (configuration not stated), the TGI was > 100 µM.
On to `OCCN(CCO)c1ncnc2c1ncn2Cc1ccc(CCl)cc1`, for which the GI50 was 17.7 µM and the TGI was > 100 µM.
Regarding `O=C(Nc1ccccc1)c1c(O)[nH]c(=S)[nH]c1=O`, the GI50 is 85.3 µM; the TGI was 114 µM and > 250 µM.
Consider `Cc1ccc(NC(=O)Nc2ccc(-c3cccnc3)cc2N2CCC(CO)CC2)cc1`, for which the GI50 is 2.19 µM and the TGI was > 100 µM.
For `Cc1cc(-c2nc(C(=O)Nc3cc4oc(N5CCOCC5)nc4nc3N3CC[C@@H](O)C3)co2)ccn1`, in that order: 41.2 µM and > 100 µM.
With `COc1ccc(CC2c3cc4c(cc3CCN2C)OCO4)c(C=O)c1OC` (configuration not stated), the TGI was > 100 µM.
With `COc1cc(/C=N\NC(=O)CN2CCN(c3cc4c(cc3F)c(=O)c(C(=O)N/N=C/c3cc(OC)c(OC)c(OC)c3)cn4C3CC3)CC2)cc(OC)c1OC`, the GI50 is 0.363 µM and the TGI was > 100 µM.

The test system of a further test is M14 melanoma. As to the kind of experiment: NCI anticancer screen, dose series, 48 h.
As to `Fc1[nH]nc2ccc([C@@H]3Nc4ccc5[nH]ncc5c4[C@H]4C5CCC(C5)[C@@H]34)cc12` (some centres not stated), the GI50 was 0.514 µM and the TGI was 11.7 µM.
In the case of `C=C(C)C(OC)C(O)CC1(C)CC(O)CC(C)(C2CCC3OC(C4(C)CCC(Br)C(C)(C)O4)CCC3(C)O2)O1` (configuration not stated), the GI50 is 17.4 µM and the TGI worked out at 32.7 µM.
`NC(N)=NS(=O)(=O)c1ccc(Nc2c3ccccc3nc3c(C(=O)NCCO)cccc23)cc1`: the GI50 was 26.3 µM.
With `COc1cccc(-c2cc(-c3cccc(NS(C)(=O)=O)c3)nc(N)c2C#N)c1O`, the GI50 is 0.0837 µM and the TGI was > 100 µM.
For `COc1ccc2c(c1)sc1nc(-c3ccccc3)c(-c3cccc4ccccc34)n12`, the GI50 was 0.475 µM and the TGI was > 100 µM.
With `C[N+](C)(C)CC(=O)N/N=C(/CC(=O)CC(C1=C(O)c2ccccc2OC1)c1ccccc1)C(=O)Nc1cccc(Cl)c1` (configuration not stated), the TGI is > 100 µM.
Consider `OCCN(CCO)c1ncnc2c1ncn2Cc1ccc(CCl)cc1`, for which the GI50 is 13.8 µM and the TGI came out at 28.4 µM.
`O=C(Nc1ccccc1)c1c(O)[nH]c(=S)[nH]c1=O` displayed a TGI of 108 µM.
Regarding `Cc1ccc(NC(=O)Nc2ccc(-c3cccnc3)cc2N2CCC(CO)CC2)cc1`, the GI50 is 2.95 µM and the TGI was found to be 13.9 µM.
For `Cc1cc(-c2nc(C(=O)Nc3cc4oc(N5CCOCC5)nc4nc3N3CC[C@@H](O)C3)co2)ccn1`, in that order: 35.9 µM and > 100 µM.
As to `COc1ccc(CC2c3cc4c(cc3CCN2C)OCO4)c(C=O)c1OC` (configuration not stated), the TGI was > 100 µM.
Take `COc1cc(/C=N\NC(=O)CN2CCN(c3cc4c(cc3F)c(=O)c(C(=O)N/N=C/c3cc(OC)c(OC)c(OC)c3)cn4C3CC3)CC2)cc(OC)c1OC`: the GI50 was 0.429 µM and the TGI was > 49.5 µM.

Another test relates to OVCAR-4 ovarian. As to the kind of experiment: NCI anticancer screen, dose series, 48 h.
As for `Fc1[nH]nc2ccc([C@@H]3Nc4ccc5[nH]ncc5c4[C@H]4C5CCC(C5)[C@@H]34)cc12` (some centres not stated), the GI50 is 4.51 µM and the TGI came out at 17.8 µM.
Taken in the same sequence, the figures for `C=C(C)C(OC)C(O)CC1(C)CC(O)CC(C)(C2CCC3OC(C4(C)CCC(Br)C(C)(C)O4)CCC3(C)O2)O1` (configuration not stated) were 23.1 µM and 44.2 µM.
In the case of `NC(N)=NS(=O)(=O)c1ccc(Nc2c3ccccc3nc3c(C(=O)NCCO)cccc23)cc1`, the GI50 is 25.3 µM.
On to `COc1cccc(-c2cc(-c3cccc(NS(C)(=O)=O)c3)nc(N)c2C#N)c1O`, for which the GI50 is 0.61 µM and the TGI was > 100 µM.
For `COc1ccc2c(c1)sc1nc(-c3ccccc3)c(-c3cccc4ccccc34)n12`, in that order: 2.87 µM and > 100 µM.
For `C[N+](C)(C)CC(=O)N/N=C(/CC(=O)CC(C1=C(O)c2ccccc2OC1)c1ccccc1)C(=O)Nc1cccc(Cl)c1` (configuration not stated), the TGI was > 100 µM.
Consider `OCCN(CCO)c1ncnc2c1ncn2Cc1ccc(CCl)cc1`, for which the GI50 is 18.8 µM and the TGI was found to be 35.4 µM.
As for `O=C(Nc1ccccc1)c1c(O)[nH]c(=S)[nH]c1=O`, the GI50 was 87.2 µM; the TGI was 103 µM and > 250 µM.
Take `Cc1ccc(NC(=O)Nc2ccc(-c3cccnc3)cc2N2CCC(CO)CC2)cc1`: the GI50 was 3.53 µM and the TGI is > 100 µM.
Taken in the same sequence, the figures for `Cc1cc(-c2nc(C(=O)Nc3cc4oc(N5CCOCC5)nc4nc3N3CC[C@@H](O)C3)co2)ccn1` were 32.1 µM and > 100 µM.
As to `COc1ccc(CC2c3cc4c(cc3CCN2C)OCO4)c(C=O)c1OC` (configuration not stated), the TGI is > 100 µM.
